Key:
HaCaT cells = assay: HaCaT proliferation (MTT); assay type: cell-based, human; set-up: dose or concentration left out as unconfirmed; settings: 24, 48, 120 and 168 hr; p<0.01
From the text: The proliferation experiment assessed the effects of the two compounds on HaCaT proliferation (as measured by MTT) in the culture system at 4 time periods (24, 48, 120 and 168 hr).

[1] = tested on: severe lacerated wound on the head; assay: Veterinary case study 10, lacerated head wound of a spectacled flying fox; assay type: in vivo, Pteropus conspicillatus
Experimental: Seven dogs (Canis lupus familiaris) and one tree kangaroo (Dendrolagus humholzii) with chronic, non-healing wounds that were unresponsive to current veterinary standards-of-care for these indications were treated with Compound 1 by independent veterinarians. A second tree kangaroo and a spectacled flying fox (Pteropus conspicillatus) with wounds unsuited for initial treatment with current standards-of-care were also treated with Compound 1. All cases were managed as open wounds without the use of dressings or other bandaging during the course of treatment with Compound 1 and the subsequent period of wound resolution. Unless stated in individual case studies, no concomitant medications were used over the course of treatments with Compound 1.
Case notes: • The patient presented as a 4 month old flying fox with a deep penetrating wound on the head […] caused by entanglement in barbed wire. • In the opinion of the treating veterinarian who had extensive experience in wildlife injuries (including flying foxes) normal standard of care treatments were likely to be highly problematic in causing the right eye to lose shape and not be able to close, either due to excessive scar tissue formation associated with surgery or the extent of granulation required if wound healing dressings were applied. • Compound 1 was applied to the wound in 3 applications of 0.1 mL of 5 mg/mL gel formulation over a 28 day period (Days 1, 10 and 28). […] A very healthy granulation bed was present.

neutrophils = assay: Induction of reactive oxygen burst by neutrophils; assay type: cell-based, human; settings: 1 ng/ml to 100 μg/ml; 15 min; DHE, flow cytometry
Experimental: Neutrophils were isolated from fresh blood of a healthy human donor by lysis of a red blood cell pellet that had been obtained by Ficoll-Paque sedimentation. The neutrophils (˜4×10^6 cells/ml) were incubated with 10 μg/ml dihydroethidium (DHE) (Sigma-Aldrich) in complete culture medium at 37° C. for 15 min alongside an aliquot of unstained cells to be tested as unstained control. This incubation was followed by treatment with Compound 1 at a range of concentrations (0, 1 ng/ml, 10 ng/ml, 100 ng/ml, 1 μg/ml, 10 μg/ml, 100 μg/ml) for 15 min. The generation of reactive oxygen species following incubation was determined using a FACS Canto flow cytometer to measure fluorescence due to oxidation of DHE to the ethidium ion.

[2] = tested on: wounds following necrosis and sloughing of spontaneous tumours; assay: Resolution of wounds after sloughing of spontaneous tumours treated by intratumoural injection, feline; assay type: in vivo
Experimental: Veterinary clinical data on speed of resolution of wounds that formed following necrosis and sloughing of spontaneous tumours that had been treated by intratumoural injection of Compound 1 (30% 1,2 propanediol formulation at either 0.5 or 1.0 mg/mL concentration) in twenty-four companion animals are summarised in Table 17.
(§1) Note that all wounds were managed as open wounds and no bandaging, dressings, lotions or concomitant medications were used in any of these cases.

[3] = tested on: human neonatal fibroblasts; assay: Scratch closure, human neonatal fibroblasts, Method 2; assay type: cell-based; settings: 200 ng/mL
Experimental: The ability of early. passage neonatal foreskin fibroblasts (NFF) cultured in RPMI 1640-10% foetal calf serum to migrate across a scratch wound made in a confluent monolayer following treatment with purified compounds or plant extracts was determined using one or more of the following three methods.
Cells were seeded in 6 mm wells (96-well plates) or 16 mm (24-well plates), with 2 to 6 replicate wells/dilution, and treated as in Method 1. Immediately after treatment, the scratch edges were outlined on the underside of the well with a fine point felt pen. After fixing and staining, migration was assessed under the microscope with the aid of a graticule, scoring migration as 0, 25, 50, 75 or 100% (total closure) of the initial width. Accelerated wound closure was considered to be significant if mean quartile of replicates was […] that of untreated controls (p<0.05, t-test). In addition, “wound” areas were created by seeding cells in the presence of 3 mm stainless steel pins (96-well plate), or by inserting flat-edged Teflon rings. These devices were removed after overnight incubation of the NFF cells.

[4] = tested on: wounds following necrosis and sloughing of spontaneous tumours; assay: Resolution of wounds after sloughing of spontaneous tumours treated by intratumoural injection, canine; assay type: in vivo; settings: for Average days from tumour slough to wound closure: Canine
Experimental: necrosis and sloughing of spontaneous tumours that had been treated by intratumoural injection of Compound 1 (30% 1,2 propanediol formulation at either 0.5 or 1.0 mg/mL concentration) in twenty-four companion animals are summarised in Table 17.
as §1

[5] = 5 to 10% tissue deficit across the original wound area
[6] = <5% tissue deficit across the original wound area
[7] = >10% tissue deficit across the original wound area
[8] = Hair covers <50% of original wound area
[9] = Hair covers >50% of original wound area
[10] = Hair covers >95% of original wound area
[11] = Localised scar covering <10% of original wound area
[12] = Scarring covering >10% of original wound area
[13] = Scarring not obvious visually or by touch

For `CC=C(C)C(=O)OC1C(C)C2(O)C(C3OC3(CO)C(O)C3(O)C(=O)C(C)=CC32)C2C(C)(C)C12OC(=O)C(C)CC` (stereo not shown) [Compound 1, 12-tigloyl-13-(2-methylbutanoyl)-6,7-epoxy-4,5,9,12,13,20-hexahydroxy-1-tigliaen-3-one], the “proliferation of HaCaT cells (MTT) vs control with no compound” value (HaCaT cells) was “increasing proliferation”, the wound status ([1]; Case 10, flying fox, head wound, 3 x 0.1 mL gel 5 mg/mL (Days 1, 10, 28), 14 days after the initial treatment) was “significant tissue infill and remodeling” and the wound status ([1]; Case 10, 55 days after the initial treatment) was “good tissue infill over the entire area of the original wound”. For the same molecule, the eye function ([1]; Case 10, by 28 days) was “capable of fully closing”, the “production of reactive oxygen species (ROS)” value (neutrophils) was “induced the significant production of reactive oxygen species (ROS) in a dose-dependent manner” and the “No. of cats: Tissue deficit at wound site, Minor” value [2, 5] was 0. The “No. of cats: Tissue deficit at wound site, Nil or minimal” value [2, 6] was 3, the “No. of cats: Tissue deficit at wound site, Substantial” value [2, 7] was 0 and the “Average days from tumour slough to wound closure” value (shortened to “Average days from tumour slough”) ([2]; Feline, wound size class 0.25 to 12 cm^2, 3 cases) was 17 ± 10 days. The “No. of cats: Hair regrowth on wound area, Sparse” value [2, 8] was 0, the “No. of cats: Hair regrowth on wound area, Partial” value [2, 9] was 1 and the “No. of cats: Hair regrowth on wound area, Full” value [2, 10] was 2. For the same molecule, the “No. of cats: Scarring & skin thickening, Minor” value [2, 11] was 0, the “No. of cats: Scarring & skin thickening, Substantial” value [2, 12] was 0 and the “No. of cats: Scarring & skin thickening, Nil or minimal” value [2, 13] was 3. For the same molecule, the “No. of cats: Change in hair colour, No” value ([2]; healed wound site) was 2, the “No. of cats: Change in hair colour, Yes” value ([2]; healed wound site) was 1 and the “No. of cats: Skin pigmentation, Hyperpigmentation” value ([2]; healed wound site) was 0. The “No. of cats: Skin pigmentation, Hypopigmentation” value ([2]; healed wound site) was 0, the “No. of cats: Skin pigmentation, Normal” value ([2]; healed wound site) was 3 and the “No. of cats: Skin pigmentation, Patchy” value ([2]; healed wound site) was 0. For the same molecule, the “% closure compared to control” value [3] was 180%, the “No. of dogs: Tissue deficit at wound site, Minor” value [4, 5] was 0 and the “No. of dogs: Tissue deficit at wound site, Nil or minimal” value [4, 6] was 15. The “No. of dogs: Tissue deficit at wound site, Substantial” value [4, 7] was 0, the “Average days from tumour slough” value ([4]; wound size class 0.25 to 9 cm^2, 7 cases) was 24 ± 16 days and the “Average days from tumour slough” value ([4]; wound size class 9 to 50 cm^2, 5 cases) was 40 ± 15 days. The “Average days from tumour slough” value ([4]; wound size class >50 to 130 cm^2, 3 cases) was 62 ± 18 days, the “No. of dogs: Hair regrowth on wound area, Sparse” value [4, 8] was 7 and the “No. of dogs: Hair regrowth on wound area, Partial” value [4, 9] was 1. For the same molecule, the “No. of dogs: Hair regrowth on wound area, Full” value [4, 10] was 12, the “No. of dogs: Scarring & skin thickening, Minor” value [4, 11] was 1 and the “No. of dogs: Scarring & skin thickening, Substantial” value [4, 12] was 1. The “No. of dogs: Scarring & skin thickening, Nil or minimal” value [4, 13] was 13, the “No. of dogs: Change in hair colour, No” value ([4]; healed wound site) was 15 and the “No. of dogs: Change in hair colour, Yes” value ([4]; healed wound site) was 0. The “No. of dogs: Skin pigmentation, Hyperpigmentation” value ([4]; healed wound site) was 0, the “No. of dogs: Skin pigmentation, Hypopigmentation” value ([4]; healed wound site) was 3 and the “No. of dogs: Skin pigmentation, Normal” value ([4]; healed wound site) was 11. For the same molecule, the “No. of dogs: Skin pigmentation, Patchy” value ([4]; healed wound site) was 1.
